Columns and labels:
Type in all cases: cell-based
E. faecium #12406 (VRE) = test: Vancomycin MIC by VITEK 2; conditions: read-out: vancomycin MIC by VITEK 2
E. faecium #13185 (VRE) = test: Vancomycin MIC by VITEK 2; conditions: read-out: vancomycin MIC by VITEK 2
E. faecium 12406 (VRE) = test: Co-culture with vancomycin and Sytox Green, intrinsic fluorescence and membrane integrity of pellet; conditions: for Microbial NADH fluorescence (Ex340 nm/Em440 nm) / Microbial tryptophan fluorescence (Ex300 nm/Em360 nm): 12406 (VRE)
Description: (§1) For each test strain, a 1 μL loopful of colonies from a 24-48 hour plate was suspended in 10-12 mL of BacT/ALERT SA media and cultured for 4-9 hours at 37° C. […] Aliquots of the cultures were removed for analysis immediately (T0) and after 1, 2.5 and 4 hours.
(§2) At the appropriate time-point, 0.5 mL aliquots of the cultures (0.5 mL) were overlaid on a density cushion composed of 24% w/v CsCl in 10 mM Hepes, pH 7.4 and 0.005% Pluronic F-108 contained in custom-made optical centrifugation tubes as disclosed in related U.S. patent application, Ser. No. 12/589,969, entitled “Separation Device for Use in the Separation, Characterization and/or Identification of Microorganisms”, filed Oct. 30, 2009. The tubes were sealed and centrifuged at 10,000 rpm for 2 minutes to separate intact microorganisms from the culture medium and unbound chemicals. The tubes were then placed into a custom-built tube holder directly onto a fiber optic probe built into the base. The probe was attached to a FluoroLog 3 spectrofluorimeter. The tube was interrogated through its UV-transparent base, and fluorescence and diffuse reflectance readings collected.

E. faecium 13185 (VRE) = test: as above; conditions: for Microbial NADH fluorescence (Ex340 nm/Em440 nm) / Microbial tryptophan fluorescence (Ex300 nm/Em360 nm): 13185 (VRE)
Description: as §1, §2

E. faecium 12480 (VSE) = test: as above; conditions: for Microbial NADH fluorescence (Ex340 nm/Em440 nm) / Microbial tryptophan fluorescence (Ex300 nm/Em360 nm): 12480 (VSE)
Description: For each test strain, a 1 μL loopful of colonies from a 24-48 hour plate was suspended in 10-12 mL of BacT/ALERT SA media and cultured for 4-9 hours at 37° C. Samples of each log phase culture were then incubated with 0, 0.25, 2.5 and 12.5 μg/mL of vancomycin-HCl in combination with 1:5000 dilution of stock Sytox Green, a viable cell impermeant DNA stain (Molecular Probes, cat #S7020), for a period of 4 hours at 37° C. Aliquots of the cultures were removed for analysis immediately (T0) and after 1, 2.5 and 4 hours.
as §2

[1] = VRE strain 12406, vancomycin 2.5 and 12.5 μg/mL
[2] = VRE strain 13185, vancomycin 2.5 and 12.5 μg/mL
[3] = VSE strain 12480, vancomycin 2.5 and 12.5 μg/mL

## CN[C@H](CC(C)C)C(=O)N[C@H]1C(=O)N[C@@H](CC(N)=O)C(=O)N[C@H]2C(=O)N[C@H]3C(=O)N[C@H](C(=O)N[C@H](C(=O)O)c4cc(O)cc(O)c4-c4cc3ccc4O)[C@H](O)c3ccc(c(Cl)c3)Oc3cc2cc(c3O[C@@H]2O[C@H](CO)[C@@H](O)[C@H](O)[C@H]2O[C@H]2C[C@](C)(N)[C@H](O)[C@H](C)O2)Oc2ccc(cc2Cl)[C@H]1O [vancomycin]
E. faecium #12406 (VRE)
  MIC: > 32 µg/mL
E. faecium #13185 (VRE)
  MIC: > 32 µg/mL
E. faecium 12406 (VRE); Vanc. 0.25 μg/mL, 1 hour
  Microbial NADH fluorescence (Ex340 nm/Em440 nm): 616,448
  Microbial tryptophan fluorescence (Ex300 nm/Em360 nm): 666,793
E. faecium 12406 (VRE); Vanc. 0.25 μg/mL, 2.5 hour
  Microbial NADH fluorescence (Ex340 nm/Em440 nm): 703,451
  Microbial tryptophan fluorescence (Ex300 nm/Em360 nm): 679,880
E. faecium 12406 (VRE); Vanc. 0.25 μg/mL, 4 hour
  Microbial NADH fluorescence (Ex340 nm/Em440 nm): 598,853
  Microbial tryptophan fluorescence (Ex300 nm/Em360 nm): 800,658
E. faecium 12406 (VRE); Vanc. 0.25 μg/mL, Zero time
  Microbial NADH fluorescence (Ex340 nm/Em440 nm): 207,307
  Microbial tryptophan fluorescence (Ex300 nm/Em360 nm): 463,942
E. faecium 12406 (VRE); Vanc. 2.5 μg/mL, 1 hour
  Microbial tryptophan fluorescence (Ex300 nm/Em360 nm): 560,948
E. faecium 12406 (VRE); Vanc. 2.5 μg/mL, 2.5 hour
  Microbial NADH fluorescence (Ex340 nm/Em440 nm): 573,926
  Microbial tryptophan fluorescence (Ex300 nm/Em360 nm): 656,768
E. faecium 12406 (VRE); Vanc. 2.5 μg/mL, 4 hour
  Microbial NADH fluorescence (Ex340 nm/Em440 nm): 931,786
  Microbial tryptophan fluorescence (Ex300 nm/Em360 nm): 651,886
E. faecium 12406 (VRE); Vanc. 2.5 μg/mL, Zero time
  Microbial NADH fluorescence (Ex340 nm/Em440 nm): 440,416
  Microbial tryptophan fluorescence (Ex300 nm/Em360 nm): 425,860
E. faecium 12406 (VRE); Vanc. 12.5 μg/mL, 1 hour
  Microbial NADH fluorescence (Ex340 nm/Em440 nm): 207,520
  Microbial tryptophan fluorescence (Ex300 nm/Em360 nm): 433,269
E. faecium 12406 (VRE); Vanc. 12.5 μg/mL, 2.5 hour
  Microbial NADH fluorescence (Ex340 nm/Em440 nm): 279,170
  Microbial tryptophan fluorescence (Ex300 nm/Em360 nm): 560,607
E. faecium 12406 (VRE); Vanc. 12.5 μg/mL, 4 hour
  Microbial NADH fluorescence (Ex340 nm/Em440 nm): 765,401
  Microbial tryptophan fluorescence (Ex300 nm/Em360 nm): 738,461
E. faecium 12406 (VRE); Vanc. 12.5 μg/mL, Zero time
  Microbial NADH fluorescence (Ex340 nm/Em440 nm): 172,372
  Microbial tryptophan fluorescence (Ex300 nm/Em360 nm): 463,985
E. faecium 12406 (VRE); [1]
  Course of cellular NADH levels: rose after approximately 1 hour in culture and continued to rise over the 4-hour culture period
  Course of cellular tryptophan levels: rose slowly over the 4-hour culture period
E. faecium 12406 (VRE); VRE strain #12406, correlated with an influx of Sytox Green
  Delay in NADH production compared with the other VRE strain: longer delay in NADH production
E. faecium 13185 (VRE); Vanc. 0.25 μg/mL, 1 hour
  Microbial NADH fluorescence (Ex340 nm/Em440 nm): 708,442
  Microbial tryptophan fluorescence (Ex300 nm/Em360 nm): 557,453
E. faecium 13185 (VRE); Vanc. 0.25 μg/mL, 2.5 hour
  Microbial NADH fluorescence (Ex340 nm/Em440 nm): 496,545
  Microbial tryptophan fluorescence (Ex300 nm/Em360 nm): 809,317
E. faecium 13185 (VRE); Vanc. 0.25 μg/mL, 4 hour
  Microbial NADH fluorescence (Ex340 nm/Em440 nm): 627,392
  Microbial tryptophan fluorescence (Ex300 nm/Em360 nm): 880,899
E. faecium 13185 (VRE); Vanc. 0.25 μg/mL, Zero time
  Microbial NADH fluorescence (Ex340 nm/Em440 nm): 316,618
  Microbial tryptophan fluorescence (Ex300 nm/Em360 nm): 546,862
E. faecium 13185 (VRE); Vanc. 2.5 μg/mL, 1 hour
  Microbial NADH fluorescence (Ex340 nm/Em440 nm): 237,463
  Microbial tryptophan fluorescence (Ex300 nm/Em360 nm): 569,043
E. faecium 13185 (VRE); Vanc. 2.5 μg/mL, 2.5 hour
  Microbial NADH fluorescence (Ex340 nm/Em440 nm): 965,305
  Microbial tryptophan fluorescence (Ex300 nm/Em360 nm): 489,661
E. faecium 13185 (VRE); Vanc. 2.5 μg/mL, 4 hour
  Microbial NADH fluorescence (Ex340 nm/Em440 nm): 782,908
  Microbial tryptophan fluorescence (Ex300 nm/Em360 nm): 868,768
E. faecium 13185 (VRE); Vanc. 2.5 μg/mL, Zero time
  Microbial NADH fluorescence (Ex340 nm/Em440 nm): 256,533
  Microbial tryptophan fluorescence (Ex300 nm/Em360 nm): 531,239
E. faecium 13185 (VRE); Vanc. 12.5 μg/mL, 1 hour
  Microbial tryptophan fluorescence (Ex300 nm/Em360 nm): 579,537
E. faecium 13185 (VRE); Vanc. 12.5 μg/mL, 2.5 hour
  Microbial NADH fluorescence (Ex340 nm/Em440 nm): 775,629
  Microbial tryptophan fluorescence (Ex300 nm/Em360 nm): 537,067
E. faecium 13185 (VRE); Vanc. 12.5 μg/mL, 4 hour
  Microbial NADH fluorescence (Ex340 nm/Em440 nm): 710,100
  Microbial tryptophan fluorescence (Ex300 nm/Em360 nm): 782,106
E. faecium 13185 (VRE); Vanc. 12.5 μg/mL, Zero time
  Microbial NADH fluorescence (Ex340 nm/Em440 nm): 234,554
  Microbial tryptophan fluorescence (Ex300 nm/Em360 nm): 537,160
E. faecium 13185 (VRE); [2]
  Course of cellular NADH levels: rose after approximately 1 hour in culture and continued to rise over the 4-hour culture period
  Course of cellular tryptophan levels: rose slowly over the 4-hour culture period
E. faecium 12480 (VSE); Vanc. 0.25 μg/mL, 1 hour
  Microbial NADH fluorescence (Ex340 nm/Em440 nm): 271,470
  Microbial tryptophan fluorescence (Ex300 nm/Em360 nm): 460,266
E. faecium 12480 (VSE); Vanc. 0.25 μg/mL, 2.5 hour
  Microbial NADH fluorescence (Ex340 nm/Em440 nm): 500,618
  Microbial tryptophan fluorescence (Ex300 nm/Em360 nm): 678,352
E. faecium 12480 (VSE); Vanc. 0.25 μg/mL, 4 hour
  Microbial NADH fluorescence (Ex340 nm/Em440 nm): 483,445
  Microbial tryptophan fluorescence (Ex300 nm/Em360 nm): 706,797
E. faecium 12480 (VSE); Vanc. 0.25 μg/mL, Zero time
  Microbial NADH fluorescence (Ex340 nm/Em440 nm): 184,649
  Microbial tryptophan fluorescence (Ex300 nm/Em360 nm): 425,539
E. faecium 12480 (VSE); Vanc. 2.5 μg/mL, 1 hour
  Microbial NADH fluorescence (Ex340 nm/Em440 nm): 254,828
  Microbial tryptophan fluorescence (Ex300 nm/Em360 nm): 438,541
E. faecium 12480 (VSE); Vanc. 2.5 μg/mL, 2.5 hour
  Microbial NADH fluorescence (Ex340 nm/Em440 nm): 149,686
  Microbial tryptophan fluorescence (Ex300 nm/Em360 nm): 466,525
E. faecium 12480 (VSE); Vanc. 2.5 μg/mL, 4 hour
  Microbial NADH fluorescence (Ex340 nm/Em440 nm): 100,931
  Microbial tryptophan fluorescence (Ex300 nm/Em360 nm): 416,780
E. faecium 12480 (VSE); Vanc. 2.5 μg/mL, Zero time
  Microbial NADH fluorescence (Ex340 nm/Em440 nm): 221,692
  Microbial tryptophan fluorescence (Ex300 nm/Em360 nm): 361,962
E. faecium 12480 (VSE); Vanc. 12.5 μg/mL, 1 hour
  Microbial NADH fluorescence (Ex340 nm/Em440 nm): 210,963
  Microbial tryptophan fluorescence (Ex300 nm/Em360 nm): 428,402
E. faecium 12480 (VSE); Vanc. 12.5 μg/mL, 2.5 hour
  Microbial NADH fluorescence (Ex340 nm/Em440 nm): 171,994
  Microbial tryptophan fluorescence (Ex300 nm/Em360 nm): 455,446
E. faecium 12480 (VSE); Vanc. 12.5 μg/mL, 4 hour
  Microbial NADH fluorescence (Ex340 nm/Em440 nm): 127,042
  Microbial tryptophan fluorescence (Ex300 nm/Em360 nm): 438,978
E. faecium 12480 (VSE); Vanc. 12.5 μg/mL, Zero time
  Microbial NADH fluorescence (Ex340 nm/Em440 nm): 178,982
  Microbial tryptophan fluorescence (Ex300 nm/Em360 nm): 389,264
E. faecium 12480 (VSE); [3]
  Course of cellular NADH levels: gradually declined over time
  Course of cellular tryptophan levels: remained stable over time

Reference: patent US10988792B2, “Methods for antimicrobial resistance determination” (bioMerieux, Inc., priority 2009, dated 2021)
